Laboratory results: ChEMBL document CHEMBL1201862, “PubChem BioAssay data set” (2004)
Active and inactive are the calls of the source.

Experiments:
[1] = biological target: Glucose-6-phosphate 1-dehydrogenase (Homo sapiens, UniProt P11413); experiment: inhibition of Homo sapiens G6PD, dose series – biochemical, fluorescence, selectivity assay for P. falciparum G6PD inhibitor project, dose response (AID 504792); type: functional
Hexokinase HKDC1 = biological target: T1, Hexokinase HKDC1 (Homo sapiens, UniProt Q2TB90); experiment: activation of HKDC1 glucose phosphorylation – biochemical, W721R variant, dose response (AID 504730); type: functional
T1 sequence (Q2TB90 whole entry): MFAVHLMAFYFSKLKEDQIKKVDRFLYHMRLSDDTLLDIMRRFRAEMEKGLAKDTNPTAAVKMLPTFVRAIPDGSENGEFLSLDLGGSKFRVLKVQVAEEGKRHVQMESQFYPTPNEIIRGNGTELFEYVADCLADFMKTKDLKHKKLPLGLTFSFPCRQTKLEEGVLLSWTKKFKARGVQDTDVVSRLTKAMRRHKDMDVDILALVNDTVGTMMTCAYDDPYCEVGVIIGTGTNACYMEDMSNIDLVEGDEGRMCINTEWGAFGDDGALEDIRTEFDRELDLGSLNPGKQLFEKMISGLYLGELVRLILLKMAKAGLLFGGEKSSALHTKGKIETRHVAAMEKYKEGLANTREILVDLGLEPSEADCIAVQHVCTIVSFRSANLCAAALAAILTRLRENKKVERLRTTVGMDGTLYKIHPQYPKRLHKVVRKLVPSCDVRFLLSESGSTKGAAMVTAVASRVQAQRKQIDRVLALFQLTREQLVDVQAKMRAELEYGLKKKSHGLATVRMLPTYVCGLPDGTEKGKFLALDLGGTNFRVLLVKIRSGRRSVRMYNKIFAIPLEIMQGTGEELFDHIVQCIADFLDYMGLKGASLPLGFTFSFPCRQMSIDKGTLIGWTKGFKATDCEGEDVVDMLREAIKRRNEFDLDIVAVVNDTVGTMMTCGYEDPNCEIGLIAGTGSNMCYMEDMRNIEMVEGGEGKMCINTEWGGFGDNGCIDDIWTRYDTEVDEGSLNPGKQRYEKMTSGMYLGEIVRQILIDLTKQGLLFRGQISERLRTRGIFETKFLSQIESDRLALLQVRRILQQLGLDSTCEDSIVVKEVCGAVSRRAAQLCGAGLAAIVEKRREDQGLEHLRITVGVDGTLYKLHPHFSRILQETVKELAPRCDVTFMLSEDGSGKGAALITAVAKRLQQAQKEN

Hexokinase-1 = biological target: T2, Hexokinase-1 (Homo sapiens, UniProt P19367); experiment: HK1 enzyme activation by HKDC1 hits – biochemical, selectivity assay for HKDC1 activator project, dose response (AID 504762); type: functional
T2 sequence (P19367 whole entry): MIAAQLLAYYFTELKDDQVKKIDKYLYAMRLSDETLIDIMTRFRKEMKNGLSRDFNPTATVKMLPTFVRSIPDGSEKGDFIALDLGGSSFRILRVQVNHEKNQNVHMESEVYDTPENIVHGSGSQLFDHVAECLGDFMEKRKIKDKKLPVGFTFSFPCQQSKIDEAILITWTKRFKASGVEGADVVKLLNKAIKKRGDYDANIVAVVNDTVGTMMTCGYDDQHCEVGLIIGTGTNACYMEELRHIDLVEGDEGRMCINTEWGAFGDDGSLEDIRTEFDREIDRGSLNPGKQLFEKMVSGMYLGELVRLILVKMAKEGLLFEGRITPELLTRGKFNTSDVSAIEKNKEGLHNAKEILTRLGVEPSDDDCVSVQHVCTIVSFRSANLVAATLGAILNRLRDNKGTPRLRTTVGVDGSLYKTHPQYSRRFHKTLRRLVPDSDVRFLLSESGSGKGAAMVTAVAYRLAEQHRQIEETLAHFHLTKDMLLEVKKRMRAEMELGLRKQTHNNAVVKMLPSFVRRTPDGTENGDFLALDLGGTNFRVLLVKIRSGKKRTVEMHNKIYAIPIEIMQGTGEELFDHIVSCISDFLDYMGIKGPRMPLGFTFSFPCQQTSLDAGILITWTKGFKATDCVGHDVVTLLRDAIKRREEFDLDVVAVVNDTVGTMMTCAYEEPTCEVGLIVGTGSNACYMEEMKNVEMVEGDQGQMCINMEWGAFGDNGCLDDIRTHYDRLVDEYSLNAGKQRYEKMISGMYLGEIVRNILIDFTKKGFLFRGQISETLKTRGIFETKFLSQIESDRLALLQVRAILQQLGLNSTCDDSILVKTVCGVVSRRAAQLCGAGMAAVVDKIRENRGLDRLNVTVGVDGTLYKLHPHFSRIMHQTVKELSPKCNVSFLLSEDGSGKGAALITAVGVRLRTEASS

[2] = biological target: DNA dC->dU-editing enzyme APOBEC-3G (Homo sapiens, UniProt Q9HC16); experiment: Dose Response confirmation of small molecule APOBEC3G DNA Deaminase Inhibitors via a fluorescence-based single-stranded DNA deaminase assay. [Related pubchem assays (depositor defined):AID493012, AID493028]; type: functional
DNA dC->dU-editing enzyme APOBEC-3G, sequence (Q9HC16 whole entry): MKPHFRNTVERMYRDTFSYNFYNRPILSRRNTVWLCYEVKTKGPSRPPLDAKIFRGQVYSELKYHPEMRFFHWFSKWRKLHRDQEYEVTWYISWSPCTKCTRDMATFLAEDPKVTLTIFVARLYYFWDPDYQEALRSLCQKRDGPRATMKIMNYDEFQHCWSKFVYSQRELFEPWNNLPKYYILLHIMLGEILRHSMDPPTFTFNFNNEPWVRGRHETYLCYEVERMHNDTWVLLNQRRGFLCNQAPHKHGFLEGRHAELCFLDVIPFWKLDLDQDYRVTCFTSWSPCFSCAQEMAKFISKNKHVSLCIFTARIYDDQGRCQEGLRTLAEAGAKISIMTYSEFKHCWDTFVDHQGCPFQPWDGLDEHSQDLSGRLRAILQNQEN

[3] = biological target: DNA dC->dU-editing enzyme APOBEC-3A (Homo sapiens, UniProt P31941); experiment: A3A deaminase inhibition for selectivity – biochemical, dose response (AID 504722); type: functional
DNA dC->dU-editing enzyme APOBEC-3A, sequence (P31941 whole entry): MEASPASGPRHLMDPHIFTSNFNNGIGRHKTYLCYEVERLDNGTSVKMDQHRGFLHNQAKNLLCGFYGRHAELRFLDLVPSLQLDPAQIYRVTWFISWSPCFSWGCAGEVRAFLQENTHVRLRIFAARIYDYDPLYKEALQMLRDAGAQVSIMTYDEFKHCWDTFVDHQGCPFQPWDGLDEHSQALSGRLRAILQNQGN

[4] = Luminescence Cell-Based Dose Retest to Confirm Inhibitors of Cancer Stem Cells. [Related pubchem assays (depositor defined):AID2717, AID2721]; type: functional; conditions: Homo sapiens
[5] = decrease of insulin promoter-GFP reporter – imaging, high-content screening, mouse beta cells (AID 1628); type: functional; conditions: MIN6
[6] = MIN6 cell viability loss – mouse insulinoma, cytotoxicity control, dose response (AID 2122); type: functional;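 also: confirmatory high-throughput counterscreen run to flag cytotoxic compounds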
[7] = biological target: T3, E3 ubiquitin-protein ligase XIAP (Homo sapiens, UniProt P98170); experiment: small molecules displacing peptide from XIAP – biochemical, IAP family, fluorescence polarization (AID 1018); type: functional
T3 sequence (P98170 whole entry): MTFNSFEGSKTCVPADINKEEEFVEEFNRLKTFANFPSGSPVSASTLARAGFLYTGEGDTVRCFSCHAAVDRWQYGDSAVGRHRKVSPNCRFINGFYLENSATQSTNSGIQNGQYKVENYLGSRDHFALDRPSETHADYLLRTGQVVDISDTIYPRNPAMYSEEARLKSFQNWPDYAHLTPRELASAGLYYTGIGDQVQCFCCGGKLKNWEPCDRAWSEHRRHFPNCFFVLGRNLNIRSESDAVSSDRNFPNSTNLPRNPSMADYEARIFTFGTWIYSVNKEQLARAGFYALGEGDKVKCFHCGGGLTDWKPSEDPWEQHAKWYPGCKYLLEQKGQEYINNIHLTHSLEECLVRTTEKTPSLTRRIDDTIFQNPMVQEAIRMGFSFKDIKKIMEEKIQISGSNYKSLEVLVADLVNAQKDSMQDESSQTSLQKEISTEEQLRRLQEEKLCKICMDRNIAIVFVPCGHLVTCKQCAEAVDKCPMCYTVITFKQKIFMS

[8] = biological target: T3, E3 ubiquitin-protein ligase XIAP; experiment: Counter Screen using XIAP-Bir3 for Chemical Antagonists of Bir1/2 domains of IAP-family anti-apoptotic proteins. [Related pubchem assays (depositor defined):AID1018, AID1449, AID1514, AID1638, AID1749, AID1750, AID488957, AID488963]
[9] = biological target: 5-hydroxytryptamine receptor 5A (Homo sapiens, UniProt P47898); experiment: Counterscreen for agonists of OPRM1-OPRD1 heterodimerization: luminescence-based cell-based high throughput dose response assay to identify agonists of 5-hydroxytryptamine (serotonin) 5A receptor (HTR5A). [Related pubchem assays (depositor defined):AID504326, AID504355, AID504692, AID504904, AID504905]; type: functional
5-hydroxytryptamine receptor 5A, sequence (P47898 whole entry): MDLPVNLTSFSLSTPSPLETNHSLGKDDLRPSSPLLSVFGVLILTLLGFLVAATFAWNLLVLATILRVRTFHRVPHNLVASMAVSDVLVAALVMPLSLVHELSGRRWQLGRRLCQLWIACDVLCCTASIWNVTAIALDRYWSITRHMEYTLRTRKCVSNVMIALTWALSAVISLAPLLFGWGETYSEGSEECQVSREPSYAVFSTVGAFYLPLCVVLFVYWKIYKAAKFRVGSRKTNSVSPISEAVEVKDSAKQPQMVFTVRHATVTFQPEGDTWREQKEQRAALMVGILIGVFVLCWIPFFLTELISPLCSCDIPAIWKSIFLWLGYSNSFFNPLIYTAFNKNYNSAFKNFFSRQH

Mu-type opioid receptor = Mu-type opioid receptor (Homo sapiens, UniProt P35372); experiment: (§1) Counterscreen for agonists of heterodimerization of the mu 1 (OPRM1) and delta 1 (OPRD1) opioid receptors: Luminescence-based cell-based high throughput dose response assay to identify agonists of OPRM1 homodimerization.; type: functional
Mu-type opioid receptor, sequence (P35372 whole entry): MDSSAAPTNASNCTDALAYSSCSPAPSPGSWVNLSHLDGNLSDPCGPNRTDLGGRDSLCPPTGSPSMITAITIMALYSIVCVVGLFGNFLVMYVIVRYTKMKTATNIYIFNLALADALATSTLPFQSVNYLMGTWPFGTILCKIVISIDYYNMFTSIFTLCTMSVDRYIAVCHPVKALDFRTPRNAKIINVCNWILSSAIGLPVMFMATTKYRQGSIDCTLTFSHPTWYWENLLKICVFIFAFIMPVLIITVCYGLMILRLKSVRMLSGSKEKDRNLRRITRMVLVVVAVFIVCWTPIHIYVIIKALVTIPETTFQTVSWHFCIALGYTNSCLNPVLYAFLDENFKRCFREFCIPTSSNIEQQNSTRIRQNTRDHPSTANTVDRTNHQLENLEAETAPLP

[10] = biological target: Delta-type opioid receptor (Homo sapiens, UniProt P41143); experiment: as §1, with “of OPRD1” for “of OPRM1”, “homodimerization. [Related pubchem assays (depositor defined):AID504326, AID504355, AID504692, AID504904, AID504905]” for “homodimerization.”; type: functional
Delta-type opioid receptor, sequence (P41143 whole entry): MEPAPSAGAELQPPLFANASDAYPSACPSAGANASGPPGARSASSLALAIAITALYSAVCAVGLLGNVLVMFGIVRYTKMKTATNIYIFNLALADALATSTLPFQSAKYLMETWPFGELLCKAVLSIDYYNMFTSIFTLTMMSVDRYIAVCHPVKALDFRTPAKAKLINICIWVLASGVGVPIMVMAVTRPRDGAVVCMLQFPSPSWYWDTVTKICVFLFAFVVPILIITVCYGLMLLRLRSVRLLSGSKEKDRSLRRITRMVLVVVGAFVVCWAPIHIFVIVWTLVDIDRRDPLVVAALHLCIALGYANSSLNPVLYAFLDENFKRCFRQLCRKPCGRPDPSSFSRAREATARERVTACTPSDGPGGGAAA

[11] = viability of uninfected HEp-2 cells – cell-based, HTS, cytotoxicity control for RSV inhibitor project, dose response (AID 2410); type: functional; conditions: human respiratory syncytial virus
CAAX prenyl protease 2 = biological target: T4, CAAX prenyl protease 2 (Saccharomyces cerevisiae S288c, UniProt Q03530); type: biochemical
T4 sequence (Q03530 whole entry): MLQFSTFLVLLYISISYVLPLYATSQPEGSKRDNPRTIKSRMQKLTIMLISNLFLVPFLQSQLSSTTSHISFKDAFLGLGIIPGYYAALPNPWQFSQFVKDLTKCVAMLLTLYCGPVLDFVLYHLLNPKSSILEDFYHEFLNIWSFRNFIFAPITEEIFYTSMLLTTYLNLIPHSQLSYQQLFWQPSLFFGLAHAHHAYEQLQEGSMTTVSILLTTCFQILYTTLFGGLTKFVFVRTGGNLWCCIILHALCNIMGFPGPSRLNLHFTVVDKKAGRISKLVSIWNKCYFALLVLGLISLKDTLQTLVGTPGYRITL

CAAX prenyl protease 1 = biological target: T5, CAAX prenyl protease 1 (Saccharomyces cerevisiae S288c, UniProt P47154); experiment: yeast CAAX protease Ste24 inhibition – biochemical, S. cerevisiae, plate reader, cherry-pick, dose response (AID 488815)
T5 sequence (P47154 whole entry): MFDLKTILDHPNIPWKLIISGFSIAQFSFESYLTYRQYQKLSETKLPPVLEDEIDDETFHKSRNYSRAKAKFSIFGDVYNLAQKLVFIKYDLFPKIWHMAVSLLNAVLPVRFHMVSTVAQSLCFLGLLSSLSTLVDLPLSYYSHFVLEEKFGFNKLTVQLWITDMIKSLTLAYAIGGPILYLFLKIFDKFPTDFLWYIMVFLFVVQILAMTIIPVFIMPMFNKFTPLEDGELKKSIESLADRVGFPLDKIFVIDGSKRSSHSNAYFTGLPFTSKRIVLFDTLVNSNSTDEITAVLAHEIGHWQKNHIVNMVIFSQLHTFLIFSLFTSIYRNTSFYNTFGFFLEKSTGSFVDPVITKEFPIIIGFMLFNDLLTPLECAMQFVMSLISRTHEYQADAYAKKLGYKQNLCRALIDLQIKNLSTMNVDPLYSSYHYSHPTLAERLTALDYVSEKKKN

[12] = biological target: C-C chemokine receptor type 6 (Homo sapiens, UniProt P51684); experiment: antagonism of CCR6 beta-arrestin recruitment – cell-based, luminescent beta-arrestin readout, dose response (AID 504728); type: functional
C-C chemokine receptor type 6, sequence (P51684 whole entry): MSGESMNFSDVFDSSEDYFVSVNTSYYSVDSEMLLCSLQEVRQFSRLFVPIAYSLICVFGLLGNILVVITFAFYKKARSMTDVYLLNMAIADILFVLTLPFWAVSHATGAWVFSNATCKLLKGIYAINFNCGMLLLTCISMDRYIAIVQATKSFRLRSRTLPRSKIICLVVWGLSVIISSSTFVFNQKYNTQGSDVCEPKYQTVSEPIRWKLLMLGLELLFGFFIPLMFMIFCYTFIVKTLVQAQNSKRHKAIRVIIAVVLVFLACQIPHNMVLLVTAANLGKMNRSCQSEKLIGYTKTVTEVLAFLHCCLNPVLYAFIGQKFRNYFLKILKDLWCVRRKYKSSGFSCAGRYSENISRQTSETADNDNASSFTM

Beta-galactosidase = Beta-galactosidase (Escherichia coli, UniProt Q8VNN2); experiment: detection-enzyme interference by beta-gal modulators – biochemical, E. coli enzyme, set 3, artefact control for CCR6 antagonist project, dose response (AID 504712); type: functional
Beta-galactosidase, sequence (Q8VNN2 whole entry): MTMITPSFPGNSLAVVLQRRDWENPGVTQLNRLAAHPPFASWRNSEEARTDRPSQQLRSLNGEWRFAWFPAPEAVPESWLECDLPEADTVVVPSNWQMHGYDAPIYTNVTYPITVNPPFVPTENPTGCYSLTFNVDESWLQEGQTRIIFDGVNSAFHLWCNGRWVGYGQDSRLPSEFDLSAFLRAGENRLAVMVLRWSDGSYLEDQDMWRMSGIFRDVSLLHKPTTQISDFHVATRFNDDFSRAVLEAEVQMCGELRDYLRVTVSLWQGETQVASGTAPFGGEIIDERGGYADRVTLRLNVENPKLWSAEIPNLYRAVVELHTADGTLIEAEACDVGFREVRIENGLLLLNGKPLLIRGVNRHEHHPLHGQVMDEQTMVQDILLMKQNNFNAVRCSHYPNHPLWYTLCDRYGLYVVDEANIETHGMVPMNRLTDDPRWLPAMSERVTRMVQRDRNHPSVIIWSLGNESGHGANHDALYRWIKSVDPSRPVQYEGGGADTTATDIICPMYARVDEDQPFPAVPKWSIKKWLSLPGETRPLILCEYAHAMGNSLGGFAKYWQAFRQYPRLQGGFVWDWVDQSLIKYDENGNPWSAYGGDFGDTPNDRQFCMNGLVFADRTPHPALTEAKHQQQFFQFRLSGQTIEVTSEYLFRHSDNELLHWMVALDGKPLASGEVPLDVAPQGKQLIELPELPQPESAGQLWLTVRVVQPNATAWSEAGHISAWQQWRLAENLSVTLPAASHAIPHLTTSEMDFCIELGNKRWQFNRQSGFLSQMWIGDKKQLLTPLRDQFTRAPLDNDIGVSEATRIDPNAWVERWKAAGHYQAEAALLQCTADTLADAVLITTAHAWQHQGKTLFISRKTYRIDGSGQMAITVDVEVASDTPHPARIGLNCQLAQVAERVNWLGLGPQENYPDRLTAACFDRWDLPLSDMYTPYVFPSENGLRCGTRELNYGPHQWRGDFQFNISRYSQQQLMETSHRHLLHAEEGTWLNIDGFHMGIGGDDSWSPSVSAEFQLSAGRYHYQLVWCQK

[13] = biological target: G-protein coupled receptor 55 (Homo sapiens, UniProt Q9Y2T6); experiment: selective activators of receptor GPR55 – imaging, U2OS cells, beta-arrestin-GFP redistribution, primary screen (AID 1961); type: functional
G-protein coupled receptor 55, sequence (Q9Y2T6 whole entry): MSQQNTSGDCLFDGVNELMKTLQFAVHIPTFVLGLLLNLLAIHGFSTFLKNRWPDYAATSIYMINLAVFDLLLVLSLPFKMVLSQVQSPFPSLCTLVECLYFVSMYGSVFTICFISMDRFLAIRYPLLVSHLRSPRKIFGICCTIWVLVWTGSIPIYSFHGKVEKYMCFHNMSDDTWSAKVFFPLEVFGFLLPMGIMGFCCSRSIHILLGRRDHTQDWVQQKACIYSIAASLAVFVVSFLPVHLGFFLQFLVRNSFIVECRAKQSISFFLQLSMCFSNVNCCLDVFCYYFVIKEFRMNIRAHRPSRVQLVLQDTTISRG

[14] = biological target: T6, Mannose-6-phosphate isomerase (Homo sapiens, UniProt P34949); experiment: phosphomannose isomerase inhibition – biochemical, fluorescence intensity, confirmation (AID 1535)
T6 sequence (P34949 whole entry): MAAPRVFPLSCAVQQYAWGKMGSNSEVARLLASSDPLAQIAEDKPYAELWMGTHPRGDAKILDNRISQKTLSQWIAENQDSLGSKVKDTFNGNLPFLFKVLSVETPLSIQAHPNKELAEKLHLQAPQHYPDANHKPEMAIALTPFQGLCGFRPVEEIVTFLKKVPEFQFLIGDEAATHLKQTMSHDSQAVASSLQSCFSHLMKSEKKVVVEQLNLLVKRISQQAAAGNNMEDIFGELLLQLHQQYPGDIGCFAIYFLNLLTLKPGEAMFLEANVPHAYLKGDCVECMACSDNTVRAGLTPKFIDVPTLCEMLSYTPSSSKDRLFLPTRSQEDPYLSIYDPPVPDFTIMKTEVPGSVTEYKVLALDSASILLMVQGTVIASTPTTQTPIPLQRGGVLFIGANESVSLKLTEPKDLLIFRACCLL

[15] = biological target: Phosphoethanolamine/phosphocholine phosphatase (Homo sapiens, UniProt Q8TCT1); experiment: SAR assay for compounds that inhibit PHOSPHO1. [Related pubchem assays (depositor defined):AID1545, AID1565, AID1574]
Phosphomannomutase 2 = Phosphomannomutase 2 (Homo sapiens, UniProt O15305); experiment: Counter screen SAR assay for PMM2 inhibitors via a fluorescence intensity assay. [Related pubchem assays (depositor defined):AID1545, AID1574]
Phosphomannomutase 2, sequence (O15305 whole entry): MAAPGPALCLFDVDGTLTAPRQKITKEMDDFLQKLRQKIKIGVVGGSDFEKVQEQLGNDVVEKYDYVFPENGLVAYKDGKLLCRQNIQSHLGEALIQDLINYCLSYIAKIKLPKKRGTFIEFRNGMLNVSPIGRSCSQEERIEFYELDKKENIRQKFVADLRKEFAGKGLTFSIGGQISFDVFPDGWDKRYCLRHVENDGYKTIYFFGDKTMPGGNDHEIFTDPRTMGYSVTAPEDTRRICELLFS

Glucose-6-phosphate 1-dehydrogenase, sequence (P11413 whole entry): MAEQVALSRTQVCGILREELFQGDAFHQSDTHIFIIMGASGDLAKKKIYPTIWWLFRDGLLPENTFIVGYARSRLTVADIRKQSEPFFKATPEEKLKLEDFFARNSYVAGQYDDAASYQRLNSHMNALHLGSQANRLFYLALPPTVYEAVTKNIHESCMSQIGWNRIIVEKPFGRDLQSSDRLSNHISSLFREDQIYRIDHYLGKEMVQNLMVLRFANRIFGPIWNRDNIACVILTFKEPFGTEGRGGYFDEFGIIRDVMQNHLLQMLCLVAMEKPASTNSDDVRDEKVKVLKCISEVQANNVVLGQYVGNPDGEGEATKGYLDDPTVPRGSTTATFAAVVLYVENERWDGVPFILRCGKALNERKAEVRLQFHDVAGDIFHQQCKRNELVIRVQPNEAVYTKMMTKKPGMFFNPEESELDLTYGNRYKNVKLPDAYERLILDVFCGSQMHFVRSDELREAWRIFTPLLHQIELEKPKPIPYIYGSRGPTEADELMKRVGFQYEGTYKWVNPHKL

**Q.** With CC(NC(=O)c1sc2cc([N+](=O)[O-])ccc2c1Cl)C(C)(C)C (centres undefined) as the compound, how does the IC50 [1] read?
**A.** > 80 µM (inactive)

**Q.** What about the EC50 (Hexokinase HKDC1) of the same compound?
**A.** 23.6 µM (inactive)

**Q.** And the EC50 (Hexokinase-1)?
**A.** 46.8 µM (inactive)

**Q.** And the IC50 [2]?
**A.** 18.4 µM (active)

**Q.** And the IC50 [3]?
**A.** > 100 µM (inactive)

**Q.** What does the source list for COC(=O)c1c(NC(=O)Cc2cccs2)sc2c1CCC(C)C2 (centres undefined)?
**A.** AC50 [4]: 2.78 µM (active); IC50 [5]: 6.23 µM (active); IC50 [6]: > 16 µM (inactive)

**Q.** What does the source list for CCCc1nc2oc3cc(OC)ccc3c(=O)c2c(=O)n1Cc1ccco1?
**A.** IC50 [7]: > 100 µM (not active); IC50 [8]: > 100 µM (inactive)

**Q.** Which EC50 [9] does the source give for COC(=O)CCCNC(=O)c1ccc(OC2CCN(CCc3ccccc3)CC2)cc1 here?
**A.** > 92.5 µM (inactive)

**Q.** And the EC50 (Mu-type opioid receptor)?
**A.** > 92.5 µM (inactive)

**Q.** And the EC50 [10]?
**A.** > 92.5 µM (inactive)

**Q.** Which results are given for Cc1ccc(C(C)NC(=O)/C(C#N)=C\c2c(C)[nH]c3ccccc23)cc1 (centres undefined)?
**A.** CC50 [11]: 19.4 µM (active); IC50 [7]: > 100 µM (not active); IC50 [8]: > 100 µM (inactive)

**Q.** For N#Cc1c(N2CCN(C(=O)c3ccccc3)CC2)nc(-c2ccccc2)c2c1CCCC2, which AC50 (CAAX prenyl protease 2) is on record?
**A.** 8.3 µM (active)

**Q.** And the AC50 (CAAX prenyl protease 1)?
**A.** 1.6 µM (active)

**Q.** And the IC50 [12]?
**A.** > 66.6 µM (inactive)

**Q.** And the IC50 (Beta-galactosidase)?
**A.** > 66.6 µM (inactive)

**Q.** With COCCCN=C(S)NNC(=O)c1cccnc1 as the compound, how does the EC50 [13] read?
**A.** > 32 µM (inactive)

**Q.** For O=c1c2c([N+](=O)[O-])cc([N+](=O)[O-])cc2sn1-c1ccc(F)c(Cl)c1, which IC50 [14] is on record?
**A.** 12 µM (active)

**Q.** What about the IC50 [15] of the same compound?
**A.** 0.192 µM (active)

**Q.** And the IC50 (Phosphomannomutase 2)?
**A.** 1.26 µM (active)
